# Experimental data published in the supplement of paper PMC11061612.
# Assays:
# Test in all cases: Bliss excess, mean over the matrix (fraction); higher = more synergy
# [1] = system: ME-180 (Cervical Carcinoma)
# Procedure, shortened: (§1)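 Cell lines in DMEM/F12 or RPMI with 10% FBS were plated in 1536-well plates, held 24 hours at 37°C, 5% CO2, then given two-drug dose matrices for 72 hours (DMSO typically 0.2%). Viability was read by CellTiter-Glo 2.0 luminescence and scaled as inhibition from 0 (vehicle wells) to 1 (blank wells). Combination Emax is the second-highest inhibition in the matrix; Bliss excess is observed combination effect minus expected EA + EB − EA·EB, EA and EB being single-agent effects.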
# [2] = system: NCI-H522 (Lung Adenocarcinoma)
# Procedure, shortened: as §1
# [3] = system: Hey (Ovarian Carcinoma)
# Procedure, shortened: as §1
# [4] = system: NCI-H650 (Lung Adenocarcinoma)
# Procedure, shortened: as §1
SMILES,Bliss excess [1],Bliss excess [2],Bliss excess [3],Bliss excess [4]
"O=C(c1cc(Cc2n[nH]c(=O)c3ccccc23)ccc1F)N1CCN(C(=O)C2CC2)CC1 [Olaparib] + COc1nnc2ccc(N3CCC(c4ccc(OCCN5CCN(C)C(=O)[C@H]5C)cc4)CC3)nn12 [AZD5153] (first compound max 10 µM, 7x7, partner max 1 µM)",-0.0279,-0.0528,–,–
"CC(=O)c1c(C)c2cnc(Nc3ccc(N4CCNCC4)cn3)nc2n(C2CCCC2)c1=O [Palbociclib] + Cn1cnc2c(F)c(Nc3ccc(Br)cc3Cl)c(C(=O)NOCCO)cc21 [Selumetinib] (first compound max 10 µM, 7x7, partner max 10 µM)",0.0042,-0.0389,0.0222,0.0058
"C[C@@H]1COCCN1c1cc(C2([S@](C)(=N)=O)CC2)nc(-c2ccnc3[nH]ccc23)n1 [AZD6738] + O=C(c1cc(Cc2n[nH]c(=O)c3ccccc23)ccc1F)N1CCN(C(=O)C2CC2)CC1 [Olaparib] (first compound max 10 µM, 7x7, partner max 10 µM)",0.0056,0.0229,0.0379,-0.0227
"CC1(C)CCC(CN2CCN(c3ccc(C(=O)NS(=O)(=O)c4ccc(NCC5CCOCC5)c([N+](=O)[O-])c4)c(Oc4cnc5[nH]ccc5c4)c3)CC2)=C(c2ccc(Cl)cc2)C1 [Venetoclax] + C=CCn1c(=O)c2cnc(Nc3ccc(N4CCN(C)CC4)cc3)nc2n1-c1cccc(C(C)(C)O)n1 [AZD1775] (first compound max 1 µM, partner max 1 µM)",-0.0001,0.0162,-0.0821,-0.0422
"CC1(C)CCC(CN2CCN(c3ccc(C(=O)NS(=O)(=O)c4ccc(NCC5CCOCC5)c([N+](=O)[O-])c4)c(Oc4cnc5[nH]ccc5c4)c3)CC2)=C(c2ccc(Cl)cc2)C1 [Venetoclax] + C[C@@H](Nc1cc(F)cc(F)c1)c1cc(C(=O)N(C)C)cc2c(=O)cc(N3CCOCC3)oc12 [AZD8186] (first compound max 1 µM, 7x7, partner max 3 µM)",-0.015,-0.0273,-0.0286,-0.0257
"Cc1nc(-c2cn3c(n2)-c2ccc(-c4cnn(C(C)(C)C(N)=O)c4)cc2OCC3)n(C(C)C)n1 [Taselisib] + O=C(Nc1ccc2[nH]nc(-c3ccncc3)c2c1)[C@@H]1CCN(CC(=O)N2CCN(c3ccc(-c4ncccn4)cc3)CC2)C1 [SCH772984] (first compound max 10 µM, 7x7, partner max 5 µM)",0.0324,0.057,–,–
"CN(CCO)CC[C@H](CSc1ccccc1)Nc1ccc(S(=O)(=O)NC(=O)c2ccc(N3CCC([C@@H](O)c4ccccc4-c4ccc(Cl)cc4)CC3)cc2)cc1S(=O)(=O)C(F)(F)F [AZD4320] + CS(=O)(=O)CCNCc1ccc(-c2ccc3ncnc(Nc4ccc(OCc5cccc(F)c5)c(Cl)c4)c3c2)o1 [Lapatinib] (first compound max 1 µM, 7x7, partner max 10 µM)",0.0726,-0.0206,–,–
"C[C@@H]1COCCN1c1cc(C2([S@](C)(=N)=O)CC2)nc(-c2ccnc3[nH]ccc23)n1 [AZD6738] + Nc1ccn([C@@H]2O[C@H](CO)[C@@H](O)C2(F)F)c(=O)n1 [Gemcitabine] (first compound max 10 µM, 7x7, partner max 0.3 µM)",0.0564,0.122,–,–
"CS(=O)(=O)CCNCc1ccc(-c2ccc3ncnc(Nc4ccc(OCc5cccc(F)c5)c(Cl)c4)c3c2)o1 [Lapatinib] + NC1(c2ccc(-c3nc4ccn5c(=O)[nH]nc5c4cc3-c3ccccc3)cc2)CCC1 [MK-2206] (first compound max 10 µM, 7x7, partner max 10 µM)",0.0315,-0.0313,–,-0.0464
"C[C@@H](Nc1cc(F)cc(F)c1)c1cc(C(=O)N(C)C)cc2c(=O)cc(N3CCOCC3)oc12 [AZD8186] + CC(=O)c1c(C)c2cnc(Nc3ccc(N4CCNCC4)cn3)nc2n(C2CCCC2)c1=O [Palbociclib] (first compound max 10 µM, 7x7, partner max 10 µM)",0.0177,-0.0596,–,–
"C[C@@H](Oc1cc(-c2cnn(C3CCNCC3)c2)cnc1N)c1c(Cl)ccc(F)c1Cl [Crizotinib] + Cn1cnc2c(F)c(Nc3ccc(Br)cc3Cl)c(C(=O)NOCCO)cc21 [Selumetinib] (first compound max 10 µM, 7x7, partner max 10 µM)",0.0308,-0.0495,–,–
"C[C@@H]1COCCN1c1cc(C2([S@](C)(=N)=O)CC2)nc(-c2ccnc3[nH]ccc23)n1 [AZD6738] + C1CC(C1)(C(=O)[O-])C(=O)[O-].N.N.[Pt+2] [Carboplatin] (first compound max 10 µM, 7x7, partner max 10 µM)",-0.013,-0.0584,–,–
"O=C(c1cc(Cc2n[nH]c(=O)c3ccccc23)ccc1F)N1CCN(C(=O)C2CC2)CC1 [Olaparib] + Cc1c2c(nn1C)CSCc1cc(n(C)n1)CSc1cc(c3ccccc3c1)OCCCc1c(C(=O)O)n(C)c3c-2c(Cl)ccc13 [AZD5991] (first compound max 10 µM, 7x7, partner max 1 µM)",-0.0363,-0.0062,–,–
"C=CCn1c(=O)c2cnc(Nc3ccc(N4CCN(C)CC4)cc3)nc2n1-c1cccc(C(C)(C)O)n1 [AZD1775] + CCc1c2c(nc3ccc(O)cc13)-c1cc3c(c(=O)n1C2)COC(=O)[C@]3(O)CC [SN-38] (first compound max 1 µM, partner max 0.3 µM)",-0.0039,0.0912,–,–
"O=C(c1cc(Cc2n[nH]c(=O)c3ccccc23)ccc1F)N1CCN(C(=O)C2CC2)CC1 [Olaparib] + CC1(C)CCC(CN2CCN(c3ccc(C(=O)NS(=O)(=O)c4ccc(NCC5CCOCC5)c([N+](=O)[O-])c4)c(Oc4cnc5[nH]ccc5c4)c3)CC2)=C(c2ccc(Cl)cc2)C1 [Venetoclax] (first compound max 10 µM, 7x7, partner max 1 µM)",-0.0274,-0.0627,–,–
"CS(=O)(=O)CCNCc1ccc(-c2ccc3ncnc(Nc4ccc(OCc5cccc(F)c5)c(Cl)c4)c3c2)o1 [Lapatinib] + Cn1cnc2c(F)c(Nc3ccc(Br)cc3Cl)c(C(=O)NOCCO)cc21 [Selumetinib] (first compound max 10 µM, 7x7, partner max 10 µM)",-0.028,-0.0304,–,–
"CCc1c2c(nc3ccc(O)cc13)-c1cc3c(c(=O)n1C2)COC(=O)[C@]3(O)CC [SN-38] + O=C(c1cc(Cc2n[nH]c(=O)c3ccccc23)ccc1F)N1CCN(C(=O)C2CC2)CC1 [Olaparib] (first compound max 0.3 µM, 7x7, partner max 10 µM)",0.0915,0.0909,0.0559,–
"C[C@@H](Oc1cc(-c2cnn(C3CCNCC3)c2)cnc1N)c1c(Cl)ccc(F)c1Cl [Crizotinib] + CC1=C(C(=CC=C1)Cl)NC(=O)C2=CN=C(S2)NC3=CC(=NC(=N3)C)N4CCN(CC4)CCO [Dasatinib] (first compound max 10 µM, 7x7, partner max 2 µM)",0.038,-0.0033,–,–
"Cc1c2c(nn1C)CSCc1cc(n(C)n1)CSc1cc(c3ccccc3c1)OCCCc1c(C(=O)O)n(C)c3c-2c(Cl)ccc13 [AZD5991] + CS(=O)(=O)CCNCc1ccc(-c2ccc3ncnc(Nc4ccc(OCc5cccc(F)c5)c(Cl)c4)c3c2)o1 [Lapatinib] (first compound max 1 µM, 7x7, partner max 10 µM)",0.0624,0.0118,–,–
"Cc1c2c(nn1C)CSCc1cc(n(C)n1)CSc1cc(c3ccccc3c1)OCCCc1c(C(=O)O)n(C)c3c-2c(Cl)ccc13 [AZD5991] + CCN(CCO)CCCOc1ccc2c(Nc3cc(CC(=O)Nc4cccc(F)c4)[nH]n3)ncnc2c1 [AZD2811] (first compound max 1 µM, 7x7, partner max 1 µM)",–,0.111,0.0293,0.0512
"Cc1c2c(nn1C)CSCc1cc(n(C)n1)CSc1cc(c3ccccc3c1)OCCCc1c(C(=O)O)n(C)c3c-2c(Cl)ccc13 [AZD5991] + Nc1ccn([C@@H]2O[C@H](CO)[C@@H](O)C2(F)F)c(=O)n1 [Gemcitabine] (first compound max 1 µM, 7x7, partner max 0.3 µM)",-0.036,0.091,–,–
"O=C(c1cc(Cc2n[nH]c(=O)c3ccccc23)ccc1F)N1CCN(C(=O)C2CC2)CC1 [Olaparib] + CN(CC[C@H](CSC1=CC=CC=C1)NC2=C(C=C(C=C2)S(=O)(=O)NC(=O)C3=CC=C(C=C3)N4CCC(CC4)[C@H](C5=CC=CC=C5C6=CC=C(C=C6)Cl)O)S(=O)(=O)C(F)(F)F)CCO [AZD4320] (first compound max 10 µM, 7x7, partner max 1 µM)",-0.021,-0.0566,–,–
"C=CCn1c(=O)c2cnc(Nc3ccc(N4CCN(C)CC4)cc3)nc2n1-c1cccc(C(C)(C)O)n1 [AZD1775] + Nc1ccn([C@@H]2O[C@H](CO)[C@@H](O)C2(F)F)c(=O)n1 [Gemcitabine] (first compound max 1 µM, partner max 0.3 µM)",0.0154,0.0486,–,–
"Cc1c2c(nn1C)CSCc1cc(n(C)n1)CSc1cc(c3ccccc3c1)OCCCc1c(C(=O)O)n(C)c3c-2c(Cl)ccc13 [AZD5991] + CC(=O)O[C@H]1C(=O)[C@@]2(C)[C@H]([C@H](OC(=O)c3ccccc3)[C@]3(O)C[C@H](OC(=O)[C@H](O)[C@@H](NC(=O)c4ccccc4)c4ccccc4)C(C)=C1C3(C)C)[C@]1(OC(C)=O)CO[C@@H]1C[C@@H]2O [Paclitaxel] (first compound max 1 µM, 7x7, partner max 3 µM)",0.0258,0.056,–,–
"CC1(C)CCC(CN2CCN(c3ccc(C(=O)NS(=O)(=O)c4ccc(NCC5CCOCC5)c([N+](=O)[O-])c4)c(Oc4cnc5[nH]ccc5c4)c3)CC2)=C(c2ccc(Cl)cc2)C1 [Venetoclax] + CS(=O)(=O)CCNCc1ccc(-c2ccc3ncnc(Nc4ccc(OCc5cccc(F)c5)c(Cl)c4)c3c2)o1 [Lapatinib] (first compound max 1 µM, 7x7, partner max 10 µM)",0.0153,-0.0378,–,–
"C[C@@H](Nc1cc(F)cc(F)c1)c1cc(C(=O)N(C)C)cc2c(=O)cc(N3CCOCC3)oc12 [AZD8186] + C1CN(CCC1(C(=O)N[C@@H](CCO)C2=CC=C(C=C2)Cl)N)C3=NC=NC4=C3C=CN4 [AZD5363] (first compound max 10 µM, 7x7, partner max 10 µM)",-0.0133,-0.0426,–,–
